The numbers were not newly measured in patent US5545628A, “Pharmaceutical composition containing fenofibrate” (priority 1995, dated 1996), which cites them from elsewhere.

On to `CC(C)OC(=O)C(C)(C)Oc1ccc(C(=O)c2ccc(Cl)cc2)cc1` [Fenofibrate, P-(4-chlorobenzoyl)-phenoxy isobutyrate isopropyl ester], for which the absorption as metabolite entry (oral) was “absorbed as fenofibric acid”.

Turning to `CC(C)(Oc1ccc(C(=O)c2ccc(Cl)cc2)cc1)C(=O)O` [Fenofibric acid], where the note is “fenofibric acid, mainly as the glucuronide conjugate”, the excretion entry is listed as “excreted predominantly in the urine”.
